Assay results taken from ChEMBL document CHEMBL2434892, “Flavones as isosteres of 4(1H)-quinolones: discovery of ligand efficient and dual stage antimalarial lead compounds” (Eur J Med Chem, 2013).
pIC50: −log10 of the molar value.

Columns and labels:
Plasmodium falciparum = assay: Antiplasmodial activity against chloroquine-resistant blood stage of Plasmodium falciparum W2 infected in human RBC after 48 hrs by flow cytometric analysis; assay type: functional, organism-based; details: W2, 48 h
[1] = Cytotoxicity against human HuH7 cells assessed as cell viability after 48 hrs by Alamar blue assay; assay type: cell-based, Huh-7
Plasmodium berghei [2] = assay: microbe, parasite or virus in culture; details: Huh-7, Liver
Description: Antiplasmodial activity against liver sporozoite stage of Plasmodium berghei expressing luciferase and GFP infected in human HuH7 cells assessed as inhibition of parasite development incubated for 1 hr prior to parasite infection measured after 48 hrs by Alamar blue assay

Plasmodium berghei [3] = assay: Antiplasmodial activity against liver sporozoite stage of Plasmodium berghei ANKA expressing GFP infected in human HuH7 cells assessed as inhibition of parasite development after 24 hrs by qRT-PCR analysis; assay type: functional, organism-based; details: Huh-7, Liver

SMILES	pIC50 (Plasmodium falciparum)	CC50 at 48 h [1]	pIC50 (Plasmodium berghei [2])	pIC50 (Plasmodium berghei [3])
O=c1cc(-c2ccc(Oc3ccc(Cl)cc3)cc2)oc2ccc(Cl)cc12	< 4.60			
O=c1cc(-c2ccc(Oc3ccc(Cl)cc3)cc2)oc2cc(Cl)ccc12	4.90			
Cc1ccc2c(=O)cc(-c3ccc(Oc4ccc(Cl)cc4)cc3)oc2c1	4.71	> 50 µM	5.39	
Cc1cc2oc(-c3ccc(Oc4ccc(Cl)cc4)cc3)cc(=O)c2cc1Cl	4.63			
Cc1cc2oc(-c3ccc(Oc4ccc(OC(F)(F)F)cc4)cc3)cc(=O)c2cc1Cl	< 4.60			
O=c1cc(-c2ccc(Oc3cccc(OC(F)(F)F)c3)cc2)oc2ccccc12	4.83			
Cc1cc2oc(-c3ccc(OCCCC(F)(F)F)cc3)cc(=O)c2cc1Cl	4.76			
Cc1cc2oc(-c3ccc(-c4ccccc4)cc3)cc(=O)c2cc1Cl	4.85	> 90 µM	5.07	
O=c1c(Br)c(-c2ccc(-c3ccccc3)cc2)oc2cc(CBr)c(Cl)cc12	5.22			
Cc1cc2oc(-c3ccc(-c4ccccc4)cc3)c(Br)c(=O)c2cc1Cl	< 4.60			
O=c1cc(-c2ccc(-c3ccccc3)cc2)oc2ccccc12	< 4.60			
O=c1cc(-c2ccc(-c3ccc(Cl)cc3)cc2)oc2ccccc12	< 5.00			
O=c1cc(-c2ccc(-c3ccc(F)cc3)cc2)oc2ccccc12	< 4.60			
O=Cc1ccc(-c2ccc(-c3cc(=O)c4ccccc4o3)cc2)cc1	< 4.60			
Nc1ccc(-c2ccc(-c3cc(=O)c4ccccc4o3)cc2)cn1	5.41	> 15 µM	5.72	
O=c1cc(-c2ccc(-c3cnc4ccccc4c3)cc2)oc2ccccc12	5.29			
O=c1cc(-c2ccc(Oc3ccc(Cl)cc3)cc2)oc2ccccc12	4.68	> 180 µM	5.21	
O=c1cc(-c2ccc(Br)cc2)oc2ccccc12	< 4.60			
O=c1c(-c2ccc(O)cc2)coc2cc(O)cc(O)c12 [GENISTEIN]				4.70
